Data on twelve compounds can be found in US4497812A, “2-Amino-5-aminomethyl-2-oxazolines, compositions and use” (Societe Cortial, S.A., priority 1982, dated 1985).

The structures appear in SMILES notation. Where two headings read alike, the source gives them in different places.

For data set [1], the system named is right auricle of a guinea pig stimulated electrically. The experiment in a line: positive inotropic activity in vitro. As to conditions: Cavia porcellus; 100 microg/ml; read-out: increase of the auricle contractile force. The class given is cell-based. The method, then:
The positive inotropic activity was determined in vitro on the right auricle of a guinea pig stimulated electrically.

The nature of the next data set: in vivo. The settings on record: mouse, mice, read-out: Percentage of mortality. The method, then: The toxicity was determined in mice for various ways of administraion.
Data set [2] concerns rats. Put plainly: antiallergic activity, cutaneous passive anaphylaxis test. It counts as in vivo. The method, then: The antiallergic activity was determined in rats in the cutaneous passive anaphylaxis test. The animals sensitized by an intradermic injection of IgE immediately received, after administration of the product to be tested, an intravenous injection of ovalbumin and Evans blue. The products of Examples 3 and 4 caused, at 10 mg/kg, 53 and 60% respectively inhibition of the Evans blue spot.

Data set [3] concerns right auricle of a guinea pig beating spontaneously. The experiment in a line: antihistaminic activity antiH2 in vitro, histamine-induced chronotropic effect. It counts as cell-based. The settings on record: for intrinsic chronotropic effect / inhibition at 100 µg/mL: 100 microg/ml. The protocol:
Antihistaminic activity antiH2 was determined in vitro on the right auricle of a guinea pig beating spontaneously.

For data set [4], the system named is rats. Put plainly: diuretic activity, sodium excretion. It counts as in vivo. The settings on record: 20 mg/kg per os. The method, then:
The diuretic activity was determined in rats subjected to a hydric regimen and evaluated by the ratio of sodium excreted in the treated animals to the sodium excreted in control animals. The products of Examples 3 and 7 multiplied the sodium excretion by 4.2 and 4.9 respectively at a dose of 20 mg/kg per os.

Another data set relates to mice. Put plainly: hypocholesterolemic activity, regimen rich in cholesterol and cholic acid. The settings on record: 400 mg/kg per os. The class given is in vivo. The protocol: The hypocholesterolemic activity was determined in mice subjected to a regimen rich in cholesterol and cholic acid for 7 days. After administration per os of the production of Example 6 in a dose of 400 mg/kg, a 21% reduction of cholesterolemia was noted on the 6th and 7th days. This drop in cholesterolemia was accompanied by a 20% reduction of the […] fraction, the HDL/cholesterol ratio being equal to 1.01.

The subject of data set [5] is rats. The experiment in a line: stress ulcer test. It counts as in vivo. As to conditions: 25 mg/kg per os. The source says:
The antiulcerigenic activity was shown in the stress ulcer test.

The subject of data set [6] is guinea pig ileum. Put plainly: antihistaminic activity antiH1 in vitro, contractions induced by histamine. It counts as cell-based. As to conditions: Cavia porcellus. The method, then:
The antihistaminic activity antiH1 was determined in vitro on guinea pig ileum.

For data set [7], the system named is guinea pig ileum. Put plainly: contractions induced by serotinin in vitro. It counts as cell-based. The settings on record: Cavia porcellus; 25 microg/ml.
The nature of a further data set: ulcerigenic effect. The settings on record: 200 mg/kg per os. It counts as in vivo.
Data set [8] relates to rats. Put plainly: carrageenan edema test. It counts as in vivo. As to conditions: 100 mg/kg per os, after 4 hours. The source says:
The antiinflammatory activity was brought out in the carrageenan edema test in rats.
A general note: The carrageenan paw model is a standard test of acute inflammation.

The test system of data set [9] is spontaneously hypertensive rat. The experiment in a line: spontaneously hypertensive rat, systolic pressure. As to conditions: orally 100 mg/kg. The class given is in vivo. The method, then:
In the model of the spontaneously hypertensive rat, the product of Example 13, administered orally in a dose of 100 mg/kg, caused a drop in systolic pressure of 14 and 15% respectively after two and four hours. The product of Example 14, administered in a dose of 100 mg/kg under the same conditions, caused a reduction of 21% of the systolic pressure after six hours.

Where [10] appears, read: ip, intraperitoneally 200 mg/kg.
Setting [11] is: Cavia porcellus, 5 microg/ml of histamine.
The mark [12] stands for this setting: ip, intraperitoneally 100 mg/kg.

Regarding `CCN(CC)CC1CN=C(N)O1` (stereo not shown) [Example 1, 2-amino-N,N-5-diethylaminomethyl-2-oxazoline], the activation at 100 µg/mL in [1] stood at 100%. Besides, the mortality in the data set “in vivo” (setting [10]) came out at 0%; in the data set “in vivo” (po, orally 300 mg/kg), 0%. Moreover, the “inhibition of the Evans blue spot” value with rats [2] (100 mg/kg per os) came out at 60%. Further, the intrinsic chronotropic effect entry in data set [3] is “without exhibiting intrinsic chronotropic effect”. In addition, in [3] (setting [11]), the inhibition at 100 µg/mL was greater than 50%.

For the compound `CCCCN(C)CC1CN=C(N)O1` (stereo not shown) [Example 2, 2-amino-5-(N-butyl-N-methylaminomethyl)-2-oxazoline], the mortality turned out to be 0% in “in vivo” (setting [12]); 100% in “in vivo” (setting [10]); 0% in “in vivo” (po, orally 300 mg/kg). Also, in [3], the intrinsic chronotropic effect result is given as “without exhibiting intrinsic chronotropic effect”. The same compound registered an inhibition at 100 µg/mL in data set [3] (setting [11]) greater than 50%.

`NC1=NCC(CN2CCCC2)O1` (stereo not shown) [Example 3, 2-amino-5-pyrrolidinomethyl-2-oxazoline]: the “sodium excretion multiplied by (ratio treated to control animals)” value in the data set on rats [4] worked out at 4.2. For the same compound, the mortality in “in vivo” (setting [12]) was 0%; in “in vivo” (setting [10]) it was 100%; in the data set “in vivo” (po, orally 300 mg/kg), 0%. Also, in the data set on rats [2] (10 mg/kg), the “inhibition of the Evans blue spot” value is 53%.

As to `NC1=NCC(CN2CCCCC2)O1` (stereo not shown) [Example 4, 2-amino-5-piperidinomethyl-2-oxazoline], the mortality in the data set “in vivo” (setting [12]) was 0%; in “in vivo” (setting [10]), 100%; in the data set “in vivo” (po, orally 200 mg/kg), 0%; in “in vivo” (po, orally 300 mg/kg), 33%. In addition, the “inhibition of the Evans blue spot” value with rats [2] (10 mg/kg) stood at 60%.

With `CC1CCN(CC2CN=C(N)O2)CC1` (stereo not shown) [Example 5, 2-amino-5-(4-methylpiperidinomethyl)-2-oxazoline], the mortality amounted to 0% in “in vivo” (setting [12]); 100% in “in vivo” (setting [10]); 0% in “in vivo” (po, orally 300 mg/kg).

As to `CCC1CCCCN1CC1CN=C(N)O1` (stereo not shown) [Example 6, 2-amino-5-(2-ethylpiperidinomethyl)-2-oxazoline], the mortality in “in vivo” (setting [10]) was found to be 0%. Moreover, the mortality in “in vivo” (po, orally 300 mg/kg) came to 0%. In addition, the intrinsic chronotropic effect result in data set [3] was “without exhibiting intrinsic chronotropic effect”. This compound also gave an inhibition at 100 µg/mL in data set [3] (setting [11]) greater than 50%. In the data set on mice, the HDL/cholesterol ratio came out at 1.01 and the “reduction of the HDL-VLDL fraction” value is 20%. The compound further had a reduction of cholesterolemia in the data set with mice (6th and 7th days) of 21%.

For `NC1=NCC(CN2CCOCC2)O1` (stereo not shown) [Example 7, 2-amino-5-morpholinomethyl-2-oxazoline], in the data set with rats [4], the “sodium excretion multiplied by (ratio treated to control animals)” value is given as 4.9. Moreover, in “in vivo” (po, orally 300 mg/kg), the mortality came out at 100%.

For `CN1CCN(CC2CN=C(N)O2)CC1` (stereo not shown) [Example 10, 2-amino-(4-methylpiperazinyl)-5-methyl-2-oxazoline], the mortality in the data set “in vivo” (setting [10]) came out at 0%; in the data set “in vivo” (po, orally 300 mg/kg) it was 0%.

Turning to `NC1=NCC(CN2CCN(c3ccccc3)CC2)O1` (stereo not shown) [Example 11], in the data set with rats [5], the “inhibition of the stress ulcer” value worked out at 88%. In addition, the inhibition at 25 µg/mL was greater than 80% in the data set with guinea pig ileum [6] (25 microg/ml) and 80% in the data set with guinea pig ileum [7]. Moreover, the ulcerigenic effect result in “ulcerigenic effect” was “very slightly ulcerigenic”. Further, the “inhibition of carrageenan edema” value in the data set with rats [8] is 35%.

As for `NC1=NCC(CN2CCC(Cc3ccccc3)CC2)O1` (stereo not shown) [Example 12], the mortality was found to be 0% in “in vivo” (setting [12]); 100% in the data set “in vivo” (setting [10]); 0% in the data set “in vivo” (po, orally 100 mg/kg (footnote 1)); 100% in “in vivo” (po, orally 300 mg/kg).

Take `NC1=NCC(CN2CCN(Cc3ccccc3)CC2)O1` (stereo not shown) [Example 13]: the mortality in the data set “in vivo” (setting [12]) amounted to 0%; in “in vivo” (setting [10]), 100%; in the data set “in vivo” (po, orally 300 mg/kg), 0%. Further, the inhibition at 100 µg/mL in the data set with guinea pig ileum [6] (100 microg/ml) was greater than 80%; in data set [3] (setting [11]), greater than 50%. Besides, the “drop in systolic pressure” value in data set [9] (after four hours) worked out at 15%; in data set [9] (after two hours), 14%.

As to `C=CCN1CCN(CC2CN=C(N)O2)CC1` (stereo not shown) [Example 14], the mortality stood at 0% in the data set “in vivo” (setting [10]) and 0% in the data set “in vivo” (po, orally 300 mg/kg). Also, the inhibition at 50 µg/mL in data set [3] (Cavia porcellus, 50 microg/ml, 5 microg/ml of histamine) is greater than 50%. Further, the “reduction of the systolic pressure” value in data set [9] (after six hours) stood at 21%.

One may read the mortality as the share of the test organisms that died. By inhibition is commonly meant the relative decrease from the control value, in per cent. Lower therefore signals little suppression.
